In PMC9444293 (Investigative Radiology, 2022):
Where two headings read alike, the source gives them in different places. Marks after values point to notes of the source that are not given here.

What was measured:
[1] = ref Szomolanyi et al, 23; cited from earlier work
[2] = rat
[3] = type: physicochemical; settings: 37°C, pH 7.4, 21 days, LLOQ 0.1 nmol Gd/g
[4] = cited from earlier work
[5] = Partition coefficient; type: physicochemical; settings: pH 7.4, room temperature
[6] = market formulation; ref Port et al, 24; cited from earlier work
[7] = type: physicochemical; settings: after 3 days
[8] = Number of inner sphere water molecules; type: physicochemical; settings: per Gd
[9] = IV 0.1 mmol Gd/kg bw
[10] = formulation; ref Port et al, 24; cited from earlier work
[11] = ref Port et al, 24; cited from earlier work
[12] = pH 7.4; cited from earlier work
[13] = 7 days after single IV 0.1 mmol Gd/kg bw
[14] = 7 days after single IV 0.1 mmol Gd/kg bw, LLOQ 0.05

O=C([O-])CN1CCN(CC(=O)[O-])CCN([C@H](CO)[C@H](O)CO)CCN(CC(=O)[O-])CC1.[Gd+3] (racemic) [Gadobutrol, gadobutrol, reference compound]
r1-Relaxivity in Human Plasma at 37°C, 3.0 T [1]: 5.0 ± 0.6§ mM^−1 s^−1
Gadolinium concentration, Bone marrow [2, 13]: 0.628 ± 0.420 nmol Gd/g wet tissue
Gadolinium concentration, Carcass [2, 13]: 0.590 ± 0.162 nmol Gd/g wet tissue
Gadolinium concentration, Heart [2, 13]: 0.127 ± 0.004 nmol Gd/g wet tissue
Gadolinium concentration, Intestine [2, 13]: 0.453 ± 0.233 nmol Gd/g wet tissue
Gadolinium concentration, Kidney [2, 13]: 19.6 ± 1.47 nmol Gd/g wet tissue
Gadolinium concentration, Liver [2, 13]: 0.312 ± 0.054 nmol Gd/g wet tissue
Gadolinium concentration, Lung [2, 13]: 0.218 ± 0.046 nmol Gd/g wet tissue
Gadolinium concentration, Mesenterial lymph nodes [2, 13]: 0.631 ± 0.113 nmol Gd/g wet tissue
Gadolinium concentration, Muscle [2, 13]: 0.074 ± 0.013 nmol Gd/g wet tissue
Gadolinium concentration, Skin [2, 13]: 0.202 ± 0.057 nmol Gd/g wet tissue
Gadolinium concentration, Spleen [2, 13]: 0.382 ± 0.101 nmol Gd/g wet tissue
Gadolinium concentration, Stomach [2, 13]: 0.155 ± 0.010 nmol Gd/g wet tissue
Gadolinium concentration, Blood [2, 14]: <0.05* nmol Gd/g wet tissue
Gadolinium concentration, Brain [2, 14]: <0.05* nmol Gd/g wet tissue
Gadolinium concentration, Bone ([2]; femur, 7 days after single IV 0.1 mmol Gd/kg bw): 1.013 ± 0.767 nmol Gd/g wet tissue
Amount of Gd recovered in Feces, 0–5 d ([2]; in vivo, iv): 1.44% ± 1.2%
Amount of Gd recovered in Urine, 0–1 d ([2]; in vivo, iv): 99.2% ± 1.5%
Amount of Gd recovered in Urine, 0–5 d ([2]; in vivo, iv): 100% ± 1.6%
Total recovery of Gd, 0–7 d ([2]; in vivo, iv): 102% ± 4.1%
Gd release after 21 days in human serum (below LLOQ) [3]: < 0.1 nmol Gd/g
r1-Relaxivity in Human Plasma at 37°C, 1.5 T ([4]; ref Szomolanyi et al, 23, listed as gadobutrol): 4.8 mM⁻¹ s⁻¹
r1-Relaxivity in Human Plasma at 37°C, 1.5 T ([4]; ref Szomolanyi et al, 23): 4.8 ± 0.1§ mM^−1 s^−1
Log P (1-Butanol/Buffer) [5]: −2.22
Osmolality at 37°C [6]: 1603∥ mosmol/kg H2O
Decrease of the T1 relaxation rates (R1) in zinc transmetallation assay [7]: no change
No. Inner Sphere Water Molecules (q) [8]: q = 1
AUC^∞ ([9]; rat plasma): 234 ± 10 (4.3%) μmol·h/L
γ-AUC ([9]; rat plasma): 1.1 % of AUC^∞
γ-AUC ([9]; rat plasma, listed as gadobutrol): 1 % of AUC^∞
Clplasma ([9]; rat): 0.43 ± 0.02 (4.3%) L/h/kg
Vss ([9]; rat): 0.29 ± 0.03 (9.1%) L/kg
β t1/2 ([9]; rat, 3-compartment model): 22 ± 0.69 (3.2%) min
γ t1/2 ([9]; rat, 3-compartment model): 13 ± 2.0 (16%) h
α t1/2 ([9]; rat, 3-compartment model, mean estimate ± SD (CV%)): 2.5 ± 1.1 (42%) min
Viscosity at 37°C [10]: 5.0∥ mPa·s

CNC[C@H](O)[C@@H](O)[C@H](O)[C@H](O)CO.O=C([O-])CN1CCN(CC(=O)[O-])CCN(CC(=O)O)CCN(CC(=O)[O-])CC1.[Gd+3] [Gadoterate meglumine, gadoterate meglumine]
r1-Relaxivity in Human Plasma at 37°C, 3.0 T [1]: 3.0 ± 0.1§ mM^−1 s^−1
Log P (1-Butanol/Buffer) [11]: −2.87∥
r1-Relaxivity in Human Plasma at 37°C, 1.5 T ([4]; ref Szomolanyi et al, 23, listed as gadoterate meglumine): 3.3 mM⁻¹ s⁻¹
r1-Relaxivity in Human Plasma at 37°C, 1.5 T ([4]; ref Szomolanyi et al, 23): 3.3 ± 0.1§ mM^−1 s^−1
Osmolality at 37°C [6]: 1350∥ mosmol/kg H2O
Decrease of the T1 relaxation rates (R1) in zinc transmetallation assay [7]: no change
No. Inner Sphere Water Molecules (q) [8]: q = 1
Viscosity at 37°C [10]: 2.0∥ mPa·s

Gadopiclenol
log Kcond [12]: 15.5

CC(O)CN1CCN(CC(=O)[O-])CCN(CC(=O)[O-])CCN(CC(=O)[O-])CC1.[Gd+3] (centres unmarked) [Gadoteridol]
r1-Relaxivity in Human Plasma at 37°C, 3.0 T [1]: 3.3 ± 0.1§ mM^−1 s^−1
Log P (1-Butanol/Buffer) [11]: −1.98∥
r1-Relaxivity in Human Plasma at 37°C, 1.5 T ([4]; ref Szomolanyi et al, 23): 3.8 ± 0.1§ mM^−1 s^−1
Osmolality at 37°C [6]: 630∥ mosmol/kg H2O
No. Inner Sphere Water Molecules (q) [8]: q = 1
Viscosity at 37°C [10]: 1.3∥ mPa·s

CNC[C@H](O)[C@@H](O)[C@H](O)[C@H](O)CO.CNC[C@H](O)[C@@H](O)[C@H](O)[C@H](O)CO.O=C([O-])CN(CCN(CC(=O)[O-])CC(=O)O)CCN(CC(=O)[O-])CC(=O)O.[Gd+3] [Gadopentetate dimeglumine, gadopentetate dimeglumine]
Decrease of the T1 relaxation rates (R1) in zinc transmetallation assay [7]: 66%

Gd-PCTA
log Kcond [12]: 15.5
